Assay results from DBAASP.
Converted amounts (≈) assume the structure as drawn. Each block holds one compound with its values, some of them ahead of it.

How the values were obtained:
Test in all cases: ≥ marks a high value that may be exact or a test limit, other limits are often not marked, values filed in µg/mL are converted to µM
[1] = system: Salmonella enterica subsp. enterica serovar Typhimurium ATCC 14028
[2] = system: Escherichia coli DH5alpha
[3] = system: Klebsiella pneumoniae ATCC 10031
[4] = system: Escherichia coli ATCC 25922
[5] = system: Staphylococcus aureus ATCC 12600
[6] = system: Pseudomonas aeruginosa ATCC 27853
[7] = system: Streptococcus mutans ATCC 25175
[8] = system: Staphylococcus aureus ATCC 25923
[9] = system: Candida albicans ATCC 20032
[10] = system: Bacillus subtilis ATCC 6633
[11] = system: Staphylococcus aureus NCTC 10788
[12] = system: Candida albicans NCYC 1467
[13] = system: Escherichia coli NCTC 10418
[14] = system: Staphylococcus aureus ATCC 12493
[15] = system: Enterococcus faecalis NCTC 12697
[16] = system: Candida albicans NCPF 1467
[17] = system: Candida albicans ATCC 36232
[18] = system: Staphylococcus aureus ATCC 6538
[19] = system: Escherichia coli ATCC 2592
[20] = system: Pseudomonas aeruginosa ATCC 9027
[21] = system: Micrococcus luteus ATCC 9341
[22] = system: Staphylococcus epidermidis ATCC 12228
Staphylococcus aureus = system: Staphylococcus aureus
[23] = system: Staphylococcus aureus NCTC 12493

MIC [8]: 11.7 µM (≈ 25 µg/mL)
MIC [9]: ≥ 46.7 µM
SMILES: CC(C)C[C@H](NC(=O)[C@H](C)NC(=O)[C@@H](N)CO)C(=O)N[C@H](C(=O)NCC(=O)N[C@H]1CSSC[C@@H](C(=O)N[C@@H](Cc2ccccc2)C(=O)NCC(=O)N[C@@H](CCCN=C(N)N)C(=O)NCC(=O)O)NC(=O)[C@@H]2CCCN2C(=O)[C@H](CC(N)=O)NC(=O)[C@@H]2CCCN2C(=O)[C@@H]2CCCN2C(=O)[C@H](Cc2ccc(O)cc2)NC(=O)[C@H](CO)NC(=O)[C@H](CCCCN)NC(=O)[C@H]([C@@H](C)O)NC(=O)[C@H](Cc2c[nH]c3ccccc23)NC1=O)C(C)C [SALVGCWTKSYPPNPCFGRG]

MIC [8]: > 60.1 µM
MIC [9]: ≥ 60.1 µM
MIC [10]: ≥ 60.1 µM
MIC [4]: > 60.1 µM
SMILES: CC[C@H](C)[C@H](N)C(=O)N[C@@H](CC(C)C)C(=O)NCC(=O)N1CCC[C@H]1C(=O)N[C@H](C(=O)N[C@@H](CC(C)C)C(=O)NCC(=O)N[C@@H](CC(C)C)C(=O)N[C@H](C(=O)NCC(=O)N[C@@H](CC(=O)O)C(=O)N[C@H](C(=O)N[C@@H](CC(C)C)C(=O)NCC(=O)N[C@@H](CC(=O)O)C(=O)N[C@@H](CC(C)C)C(=O)N[C@@H](CC(C)C)C(N)=O)[C@@H](C)O)C(C)C)C(C)C [ILGPVLGLVGDTLGDLL]

MIC [11]: 8 µM (≈ 13.7 µg/mL)
MIC [13]: 16 µM (≈ 27.5 µg/mL)
MIC [15]: ≥ 32 µM
MIC [6]: 64 µM (≈ 110 µg/mL)
MIC [14]: 16 µM (≈ 27.5 µg/mL)
MIC [16]: 16 µM (≈ 27.5 µg/mL)
SMILES: CC(C)C[C@H](NC(=O)[C@H](C)NC(=O)[C@H](C)NC(=O)[C@H](CC(C)C)NC(=O)[C@H](CC(N)=O)NC(=O)[C@@H](NC(=O)[C@@H](NC(=O)[C@H](CC(C)C)NC(=O)[C@H](CCCCN)NC(=O)[C@H](CCCCN)NC(=O)[C@@H](NC(=O)[C@@H](NC(=O)[C@@H](NC(=O)[C@H](CC(C)C)NC(=O)[C@H](Cc1ccccc1)NC(=O)[C@@H](N)CO)[C@@H](C)O)[C@@H](C)O)C(C)C)C(C)C)[C@@H](C)O)C(N)=O [SFLTTVKKLVTNLAAL]

MIC [17]: 15.1 µM (≈ 25 µg/mL)
MIC [22]: 7.54 µM (≈ 12.5 µg/mL)
MIC [18]: 15.1 µM (≈ 25 µg/mL)
MIC [19]: 30.2 µM (≈ 50 µg/mL)
MIC [10]: 7.54 µM (≈ 12.5 µg/mL)
MIC (Staphylococcus aureus): > 60.3 µM
MIC [20]: 30.2 µM (≈ 50 µg/mL)
MIC [21]: 15.1 µM (≈ 25 µg/mL)
SMILES: CC(C)[C@H](NC(=O)[C@H](CS)NC(=O)[C@@H](NC(=O)[C@H](CCCN=C(N)N)NC(=O)[C@H](CCCCN)NC(=O)CNC(=O)[C@H](CC(N)=O)NC(=O)[C@H](CS)NC(=O)[C@H](Cc1ccc(O)cc1)NC(=O)CNC(=O)CNC(=O)[C@H](CO)NC(=O)[C@@H](N)CCCN=C(N)N)C(C)C)C(=O)N[C@@H](CS)C(=O)N[C@@H](CCCN=C(N)N)C(=O)O [RSGGYCNGKRVCVCR]

More lines, now with the values behind:

SMILES: CC(C)C[C@H](NC(=O)[C@H](Cc1ccccc1)NC(=O)[C@H](CCCCN)NC(=O)[C@H](C)NC(=O)[C@H](C)NC(=O)[C@H](CC(C)C)NC(=O)[C@H](CCCCN)NC(=O)[C@H](CCCCN)NC(=O)[C@H](CC(C)C)NC(=O)[C@H](CC(C)C)NC(=O)[C@H](CCCCN)NC(=O)[C@H](CC(C)C)NC(=O)[C@@H](N)Cc1ccccc1)C(=O)O [FLKLLKKLAAKFL]
MIC [1]: 16.3 µM (≈ 25 µg/mL)
MIC [2]: 2.04 µM (≈ 3.13 µg/mL)
MIC [3]: 16.3 µM (≈ 25 µg/mL)

SMILES: CC[C@H](C)[C@H](NC(=O)[C@H](C)NC(=O)CNC(=O)[C@H](Cc1ccccc1)NC(=O)[C@H](CC(C)C)NC(=O)CN)C(=O)N[C@@H](C)C(=O)NCC(=O)N[C@@H](Cc1ccccc1)C(=O)N[C@H](C(=O)N[C@@H](CCC(=O)O)C(=O)N[C@@H](CC(N)=O)C(=O)NCC(=O)N[C@@H](Cc1c[nH]c2ccccc12)C(=O)N[C@@H](CCC(=O)O)C(=O)NCC(=O)N[C@@H](CCSC)C(=O)N[C@H](C(=O)N[C@@H](CC(=O)O)C(=O)NCC(N)=O)[C@@H](C)CC)[C@@H](C)CC [GLFGAIAGFIENGWEGMIDG]
MIC [4]: > 60.9 µM
MIC [5]: ≥ 60.9 µM
MIC [6]: > 60.9 µM
MIC [7]: ≥ 60.9 µM

SMILES: CC[C@H](C)[C@H](NC(=O)CN)C(=O)NCC(=O)NCC(=O)N[C@@H](C)C(=O)N[C@@H](CC(C)C)C(=O)N[C@@H](CC(C)C)C(=O)N[C@@H](CO)C(=O)N[C@@H](C)C(=O)NCC(=O)N[C@@H](CCCCN)C(=O)N[C@@H](CO)C(=O)N[C@@H](C)C(=O)N[C@@H](CC(C)C)C(=O)N[C@@H](CCCCN)C(=O)NCC(=O)N[C@@H](CC(C)C)C(=O)N[C@@H](C)C(=O)N[C@@H](CCCCN)C(=O)NCC(=O)N[C@@H](CC(C)C)C(=O)N[C@@H](C)C(=O)N[C@@H](CCC(=O)O)C(=O)N[C@@H](Cc1cnc[nH]1)C(=O)N[C@@H](Cc1ccccc1)C(N)=O [GIGGALLSAGKSALKGLAKGLAEHF]
MIC [8]: 15.8 µM (≈ 37.5 µg/mL)
MIC [9]: ≥ 42.3 µM
MIC [10]: ≥ 42.3 µM
MIC [4]: 31.7 µM (≈ 75 µg/mL)

SMILES: CC[C@H](C)[C@@H]1NC(=O)[C@H](CO)NC(=O)[C@H](CCCCN)NC(=O)[C@H]([C@@H](C)O)NC(=O)[C@H](Cc2c[nH]c3ccccc23)NC(=O)[C@@H](NC(=O)[C@H](CCCN=C(N)N)NC(=O)[C@H](CCCN=C(N)N)NC(=O)[C@H](CCCN=C(N)N)NC(=O)[C@H](CCC(N)=O)NC(=O)[C@H](CCCN=C(N)N)NC(=O)[C@H](CCCN=C(N)N)NC(=O)[C@H](CCCCN)NC(=O)[C@H](CCCCN)NC(=O)[C@@H](N)CCCN=C(N)N)CSSC[C@@H](C(=O)O)NC(=O)[C@@H]2CCCN2C(=O)[C@H](CCCCN)NC(=O)[C@@H]2CCCN2C(=O)[C@@H]2CCCN2C1=O [RKKRRQRRRCWTKSIPPKPC]
MIC [11]: ≥ 128 µM
MIC [12]: 4 µM (≈ 10.3 µg/mL)
MIC [13]: ≥ 128 µM
MIC [6]: 256 µM (≈ 660 µg/mL)
MIC [14]: ≥ 256 µM

SMILES: CC[C@H](C)[C@H](NC(=O)CNC(=O)[C@@H]1CCCN1C(=O)[C@H](CC(C)C)NC(=O)[C@@H](N)Cc1ccccc1)C(=O)N[C@@H](CC(C)C)C(=O)N[C@@H](CCCCN)C(=O)N[C@H](C(=O)N[C@@H](C)C(=O)N[C@@H](C)C(=O)N[C@@H](CCCCN)C(N)=O)C(C)C [FLPGILKVAAK]
MIC [11]: ≥ 256 µM
MIC [13]: ≥ 512 µM
MIC [15]: ≥ 512 µM
MIC [6]: > 512 µM
MIC [14]: ≥ 512 µM
MIC [16]: ≥ 512 µM

SMILES: CC(C)C[C@H](NC(=O)[C@H](CS)NC(=O)[C@H](CCCCN)NC(=O)[C@H](C)NC(=O)[C@H](C)NC(=O)[C@H](CS)NC(=O)[C@H](C)NC(=O)[C@H](C)NC(=O)[C@@H](N)CC(=O)O)C(=O)N[C@@H](Cc1c[nH]c2ccccc12)C(=O)N[C@@H](CCCN=C(N)N)C(N)=O [DAACAAKCLWR]
MIC [17]: ≥ 166 µM
MIC [18]: 166 µM (≈ 200 µg/mL)
MIC [19]: ≥ 166 µM
MIC [20]: > 166 µM
MIC [21]: ≥ 166 µM

SMILES: CC[C@H](C)[C@H](NC(=O)CNC(=O)[C@H](CCC(N)=O)NC(=O)[C@@H](NC(=O)[C@H](C)NC(=O)[C@H](Cc1cnc[nH]1)NC(=O)[C@@H]1CCCN1C(=O)[C@@H](NC(=O)[C@H](CC(C)C)NC(=O)[C@@H]1CCCN1C(=O)[C@@H](NC(=O)[C@H](CC(C)C)NC(=O)[C@H](Cc1cnc[nH]1)NC(=O)[C@H](CCC(N)=O)NC(=O)[C@@H](NC(=O)[C@@H](N)Cc1ccccc1)[C@@H](C)CC)[C@@H](C)CC)[C@@H](C)CC)[C@@H](C)CC)C(=O)N[C@@H](CCCCN)C(=O)N[C@@H](CC(=O)O)C(=O)N[C@H](C(=O)N[C@@H](Cc1ccccc1)C(N)=O)[C@@H](C)CC [FIQHLIPLIPHAIQGIKDIF]
MIC [23]: ≥ 45.3 µM
MIC [11]: 22.6 µM (≈ 52.3 µg/mL)
MIC [12]: ≥ 90.5 µM
MIC [13]: ≥ 512 µM
MIC [15]: ≥ 128 µM
MIC [6]: > 512 µM
